The source of these data is PMC7749003 (SLAS discovery : advancing life sciences R & D, 2020).

This assay deals with nCDase (Homo sapiens, UniProt Q9NR71). As to the kind of experiment: manual RBM-ceramide assay with fresh compounds. Particulars: dose titration. Format: biochemical.
nCDase, sequence (Q9NR71 99-780 limits assumed): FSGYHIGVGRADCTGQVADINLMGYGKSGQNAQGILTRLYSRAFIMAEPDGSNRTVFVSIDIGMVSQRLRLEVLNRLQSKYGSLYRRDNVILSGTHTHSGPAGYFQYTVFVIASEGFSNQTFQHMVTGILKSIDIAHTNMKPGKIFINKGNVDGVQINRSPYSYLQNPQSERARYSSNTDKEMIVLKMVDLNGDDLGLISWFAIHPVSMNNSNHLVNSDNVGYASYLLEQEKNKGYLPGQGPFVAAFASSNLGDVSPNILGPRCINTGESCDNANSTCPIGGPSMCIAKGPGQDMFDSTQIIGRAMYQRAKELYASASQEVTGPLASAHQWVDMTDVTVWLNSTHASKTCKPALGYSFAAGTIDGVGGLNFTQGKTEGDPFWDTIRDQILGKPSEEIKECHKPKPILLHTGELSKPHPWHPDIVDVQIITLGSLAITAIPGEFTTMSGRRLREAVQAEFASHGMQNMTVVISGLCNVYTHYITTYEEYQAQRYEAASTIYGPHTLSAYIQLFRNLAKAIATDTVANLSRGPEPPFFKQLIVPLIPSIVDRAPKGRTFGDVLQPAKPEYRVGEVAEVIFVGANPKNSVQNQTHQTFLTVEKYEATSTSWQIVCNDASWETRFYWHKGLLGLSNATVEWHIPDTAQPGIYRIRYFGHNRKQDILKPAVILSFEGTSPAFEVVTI

With `CC(/C=C/C(=O)NO)=C\[C@@H](C)C(=O)c1ccc(N(C)C)cc1` [TSA, Trichostatin A], it took 4 µM to reach half-maximal inhibition (IC50).

One may read the IC50 as the point on the concentration scale where inhibition reaches its midpoint.
